{"source": "patent US20250345370A1", "about": "“MICROBIAL LIBERATION OF N-METHYLSEROTONIN FROM ORANGE FIBER” (Washington University, priority 2022, published 2025)", "key": {"[1]": {"test": "Targeted LC-QqQ-MS of N-methylserotonin levels in gut contents, tissues, plasma and feces of gnotobiotic mice"}, "[2]": {"test_system": "liver gene expression", "test": "RNA-Seq of liver of germ-free mice treated with 50 mg/kg/d N-methylserotonin", "assay_type": "in vivo, germ-free C57BL/6J mice", "method": "RNA-Seq of liver and colonic tissue. Frozen tissue was broken into small pieces and ground into a very fine powder under liquid nitrogen using a mortar and pestle. A 25 mg aliquot of powdered tissue was then aliquoted into shearing matrix F (MP Bio) pre-chilled in liquid nitrogen; 0.5 mL of buffer LBP (Takara) was added immediately and the mixture was placed on a 4° C. cold block. Samples were then disrupted (Biospec bead beater; 2 minutes). The remaining steps in the RNA isolation procedure were performed using a Takara Nucleospin RNA Plus kit. […] Libraries were sequenced using an Illumina Hi-Seq instrument (paired end 75 nucleotide reads; 1.43×10^7±3.74×10^6 reads/liver sample, and 3.27×10^7±1.23×10^6 reads/colon sample). Reads were aligned to the Mus musculus GRCm39 genome assembly with STAR version 2.7.0d. Gene count data were generated from the number of uniquely aligned reads (featureCounts Subread version 1.6.2a). The R package DESEQ2 was used to perform differential gene expression analysis; results were filtered based on an adjusted Benjamini and Hochberg FDR p-value<0.05. Gene set enrichment analysis was carried out using ClusterProfiler with an adjusted p-value cut-off of <0.05 and minimum gene-set size of 3; over-representation was carried out using a loge fold-change cut-off of >1.\nPer2 promotes glycogen synthesis. Moreover, genetically engineered disruption of Per3 is associated with resistance to leptin with resulting weight gain, while its deletion directly leads to increased adipogenesis. […] Nfil3 serves as an important link between the gut microbiota, intestinal epithelial lipid metabolism and body composition. […] Moreover, genetic ablation of Nfil3 attenuates high fat diet-induced obesity in mice."}, "[3]": {"target": "5-Htr7 (Homo sapiens, UniProt P34969)", "sequence (P34969 whole entry)": "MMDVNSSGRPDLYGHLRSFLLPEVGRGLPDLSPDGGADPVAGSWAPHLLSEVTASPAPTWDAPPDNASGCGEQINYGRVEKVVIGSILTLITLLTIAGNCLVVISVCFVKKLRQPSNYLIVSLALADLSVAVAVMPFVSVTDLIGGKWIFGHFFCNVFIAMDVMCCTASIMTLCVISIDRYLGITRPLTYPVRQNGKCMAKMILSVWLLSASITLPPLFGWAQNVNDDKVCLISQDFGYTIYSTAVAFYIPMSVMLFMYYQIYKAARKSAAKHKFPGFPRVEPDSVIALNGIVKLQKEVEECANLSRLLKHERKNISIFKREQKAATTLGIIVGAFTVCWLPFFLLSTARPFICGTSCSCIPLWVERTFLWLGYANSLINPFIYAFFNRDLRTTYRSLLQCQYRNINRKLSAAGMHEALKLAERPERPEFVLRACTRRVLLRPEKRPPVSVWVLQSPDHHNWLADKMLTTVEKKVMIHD", "details": "in vitro studies; cited from earlier work"}, "[4]": {"details": "methanol, 50 mg orange fiber"}, "[5]": {"details": "14-member consortium, 10% orange fiber diet"}}, "note": "Read-outs that look alike come from different tables or passages of the source."}
{"compound": "CNCCc1c[nH]c2ccc(O)cc12", "note": "[N-methylserotonin]", "values": [{"measurement": "fecal N-methylserotonin levels", "setting": "[1]; 14-member community, orange fiber-supplemented HiSF-LoFV diet", "result": "131±19", "unit": "ng/g feces"}, {"measurement": "N-methylserotonin in cecal contents", "setting": "[1]; [5]", "result": "173 ± 14", "unit": "ng/g"}, {"measurement": "N-methylserotonin in cecal tissue", "setting": "[1]; [5]", "result": "130 ± 13", "unit": "ng/g"}, {"measurement": "N-methylserotonin in colonic contents", "setting": "[1]; [5]", "result": "139 ± 13", "unit": "ng/g"}, {"measurement": "N-methylserotonin in colonic tissue", "setting": "[1]; [5]", "result": "164 ± 25", "unit": "ng/g"}, {"measurement": "N-methylserotonin in plasma", "setting": "[1]; [5]", "result": "1.22 ± 0.76", "unit": "ng/mL"}, {"measurement": "N-methylserotonin in small intestine, liver, gastrocnemius muscle and kidney", "setting": "[1]; [5]", "result": "< 1", "unit": "ng/g"}, {"measurement": "N-methylserotonin in cecal or colonic contents or intestinal and extra-intestinal tissues", "setting": "[1]; 14-member consortium, 10% pea fiber diet, below limits of detection", "result": "< 0.5", "unit": "ng/g"}, {"measurement": "fecal N-methylserotonin levels", "setting": "[1]; germ-free mice, 1 mg/kg/day in drinking water", "result": "133.5 ± 15", "unit": "ng/g"}, {"measurement": "hepatic levels of Nfil3 mRNA", "setting": "[2]; 50 mg/kg/d vs untreated", "result": "statistically significantly decreased"}, {"measurement": "liver expression of Arntl and Clock", "setting": "[2]; 50 mg/kg/d vs untreated", "result": "significantly decreased expression"}, {"measurement": "liver expression of Per2, Per3, and Nr1d2", "setting": "[2]; 50 mg/kg/d vs untreated", "result": "significant increases in expression"}, {"measurement": "number of genes with statistically significant differences in expression in liver", "setting": "[2]; 50 mg/kg/d vs untreated, FDR adjusted p<0.05", "result": 716, "unit": "genes"}, {"measurement": "log2 fold-change, 0610005C13Rik (Entrez 71661)", "setting": "[2]; upregulated gene in liver: 0610005C13Rik", "result": 0.39}, {"measurement": "log2 fold-change, 2810013P06Rik (Entrez 100503178)", "setting": "[2]; upregulated gene in liver: 2810013P06Rik", "result": 0.57}, {"measurement": "log2 fold-change, 4930523C07Rik (Entrez 67647)", "setting": "[2]; upregulated gene in liver: 4930523C07Rik", "result": 0.33}, {"measurement": "log2 fold-change, Arl13b (Entrez 68146)", "setting": "[2]; upregulated gene in liver: Arl13b", "result": 0.37}, {"measurement": "log2 fold-change, Ccne2 (Entrez 12448)", "setting": "[2]; upregulated gene in liver: Ccne2", "result": 0.70}, {"measurement": "log2 fold-change, Clic1 (Entrez 114584)", "setting": "[2]; upregulated gene in liver: Clic1", "result": 0.35}, {"measurement": "log2 fold-change, Crebrf (Entrez 77128)", "setting": "[2]; upregulated gene in liver: Crebrf", "result": 0.32}, {"measurement": "log2 fold-change, Dixdc1 (Entrez 330938)", "setting": "[2]; upregulated gene in liver: Dixdc1", "result": 0.32}, {"measurement": "log2 fold-change, Fam50a (Entrez 108160)", "setting": "[2]; upregulated gene in liver: Fam50a", "result": 0.41}, {"measurement": "log2 fold-change, Fam126b (Entrez 213056)", "setting": "[2]; upregulated gene in liver: Fam126b", "result": 0.31}, {"measurement": "log2 fold-change, Hebp1 (Entrez 15199)", "setting": "[2]; upregulated gene in liver: Hebp1", "result": 0.38}, {"measurement": "log2 fold-change, Ihh (Entrez 16147)", "setting": "[2]; upregulated gene in liver: Ihh", "result": 0.74}, {"measurement": "log2 fold-change, Kyat1 (Entrez 70266)", "setting": "[2]; upregulated gene in liver: Kyat1", "result": 0.24}, {"measurement": "log2 fold-change, Map1lc3b (Entrez 67443)", "setting": "[2]; upregulated gene in liver: Map1lc3b", "result": 0.28}, {"measurement": "log2 fold-change, Mbtd1 (Entrez 103537)", "setting": "[2]; upregulated gene in liver: Mbtd1", "result": 0.48}, {"measurement": "log2 fold-change, Mxi1 (Entrez 17859)", "setting": "[2]; upregulated gene in liver: Mxi1", "result": 0.29}, {"measurement": "log2 fold-change, Pdcd4 (Entrez 18569)", "setting": "[2]; upregulated gene in liver: Pdcd4", "result": 0.36}, {"measurement": "log2 fold-change, Pnldc1 (Entrez 240023)", "setting": "[2]; upregulated gene in liver: Pnldc1", "result": 0.83}, {"measurement": "log2 fold-change, Prkag2 (Entrez 108099)", "setting": "[2]; upregulated gene in liver: Prkag2", "result": 0.36}, {"measurement": "log2 fold-change, Rcl1 (Entrez 59028)", "setting": "[2]; upregulated gene in liver: Rcl1", "result": 0.28}, {"measurement": "log2 fold-change, Rps15 (Entrez 20054)", "setting": "[2]; upregulated gene in liver: Rps15", "result": 0.38}, {"measurement": "log2 fold-change, Serpina7 (Entrez 331535)", "setting": "[2]; upregulated gene in liver: Serpina7", "result": 0.41}, {"measurement": "log2 fold-change, Smarcd2 (Entrez 83796)", "setting": "[2]; upregulated gene in liver: Smarcd2", "result": 0.27}, {"measurement": "log2 fold-change, Syne3 (Entrez 212073)", "setting": "[2]; upregulated gene in liver: Syne3, treated vs untreated germ-free mice", "result": 0.57}, {"measurement": "log2 fold-change, Tbc1d10a (Entrez 103724)", "setting": "[2]; upregulated gene in liver: Tbc1d10a", "result": 0.61}, {"measurement": "log2 fold-change, Tedc2 (Entrez 72016)", "setting": "[2]; upregulated gene in liver: Tedc2", "result": 0.43}, {"measurement": "log2 fold-change, Ube2b (Entrez 22210)", "setting": "[2]; upregulated gene in liver: Ube2b", "result": 0.41}, {"measurement": "log2 fold-change, Uchl5 (Entrez 56207)", "setting": "[2]; upregulated gene in liver: Uchl5", "result": 0.34}, {"measurement": "log2 fold-change, Zc3h6 (Entrez 78751)", "setting": "[2]; upregulated gene in liver: Zc3h6", "result": 0.63}, {"measurement": "log2 fold-change, Zfp64 (Entrez 22722)", "setting": "[2]; upregulated gene in liver: Zfp64", "result": 0.41}, {"measurement": "log2 fold-change, Zfp960 (Entrez 449000)", "setting": "[2]; upregulated gene in liver: Zfp960", "result": 0.60}, {"measurement": "binding", "setting": "[3]", "result": "binds"}, {"measurement": "N-methylserotonin released after two rounds of extraction", "setting": "[4]", "result": 31, "unit": "ng"}, {"measurement": "N-methylserotonin released in total after 15 rounds", "setting": "[4]", "result": 171, "unit": "ng"}, {"measurement": "N-methylserotonin recovered", "setting": "[4]; Extraction 1", "result": 16, "unit": "ng"}, {"measurement": "N-methylserotonin recovered", "setting": "[4]; Extraction 2", "result": 15, "unit": "ng"}, {"measurement": "N-methylserotonin recovered", "setting": "[4]; Extraction 3", "result": 16, "unit": "ng"}, {"measurement": "N-methylserotonin recovered", "setting": "[4]; Extraction 4", "result": 15, "unit": "ng"}, {"measurement": "N-methylserotonin recovered", "setting": "[4]; Extraction 5", "result": 14, "unit": "ng"}, {"measurement": "N-methylserotonin recovered", "setting": "[4]; Extraction 6", "result": 13, "unit": "ng"}, {"measurement": "N-methylserotonin recovered", "setting": "[4]; Extraction 7", "result": 12, "unit": "ng"}, {"measurement": "N-methylserotonin recovered", "setting": "[4]; Extraction 8", "result": 10, "unit": "ng"}, {"measurement": "N-methylserotonin recovered", "setting": "[4]; Extraction 9", "result": 11, "unit": "ng"}, {"measurement": "N-methylserotonin recovered", "setting": "[4]; Extraction 10", "result": 10, "unit": "ng"}, {"measurement": "N-methylserotonin recovered", "setting": "[4]; Extraction 11", "result": 9, "unit": "ng"}, {"measurement": "N-methylserotonin recovered", "setting": "[4]; Extraction 12", "result": 9, "unit": "ng"}, {"measurement": "N-methylserotonin recovered", "setting": "[4]; Extraction 13", "result": 8, "unit": "ng"}, {"measurement": "N-methylserotonin recovered", "setting": "[4]; Extraction 14", "result": 7, "unit": "ng"}, {"measurement": "N-methylserotonin recovered", "setting": "[4]; Extraction 15", "result": 6, "unit": "ng"}]}
